Measured values published in patent publication US8022249B2, “Compounds for the treatment of metabolic disorders” (Wellstat Therapeutics Corporation, priority 2005, dated 2011).

Tests used:
ob/ob mice [1] = experiment: Serum ALT and AST in ob/ob mice (animal model for NASH); assay type: in vivo; conditions: for ALT ± SD / AST ± SD: male ob/ob mice, 100 mg/kg daily oral doses for two weeks, serum
Protocol: (§1) Male ob/ob mice were divided into four treatment groups comprising six mice each, and given daily oral doses of Vehicle (1% hydroxypropylmethylcellulose) or 100 mg/kg Compound CT, Compound CV, or Compound BI (a positive control) for two weeks. Blood samples were collected form the retro-orbital sinus and processed for serum chemistry measurements.
Obese ob/ob mice develop chronic inflammatory fatty liver disease and are considered to be an animal model for nonalcoholic steatohepatitis (NASH), a condition which can lead toward progressive cirrhosis and liver dysfunction. In NASH, fat accumulation increases the susceptibility of the liver to inflammatory injury. One characteristic sign of NASH in patients is, in the absence of viral infection or alcoholism, elevated levels in serum of enzymes that are released from damaged hepatocytes, e.g. alanine aminotransferase (ALT) and Aspartate-aminotransferase (AST). These enzymes are elevated in ob/ob mice as a consequence of fatty liver and secondary inflammation. In Table 3, ALT and AST in serum samples from mice treated with Compound CT, Compound CV, and Compound BI are shown, as are enzyme levels in serum from control ob/ob mice treated only with vehicle. Treatment with Compound CT, Compound CV, and Compound BI reduced serum ALT and AST versus vehicle-treated ob/ob mice.

ob/ob mice [2] = experiment: Serum glucose, triglycerides, free fatty acids and insulin in ob/ob mice; assay type: in vivo; conditions: male ob/ob mice, 100 mg/kg daily oral doses for two weeks
Protocol: Ob/ob mice have a defect in the gene for leptin, a protein involved in appetite regulation and energy metabolism, and are hyperphagic, obese, and insulin resistant. They develop hyperglycemia and fatty liver.
as §1

| SMILES | ALT ± SD (ob/ob mice [1]) | AST ± SD (ob/ob mice [1]) | serum ALT and AST versus vehicle-treated ob/ob mice (in words) (ob/ob mice [1]) | Free Fatty Acids ± SD (ob/ob mice [2]) | Glucose ± SD (ob/ob mice [2]) | Insulin ± SD (ob/ob mice [2]) | Triglycerides ± SD (ob/ob mice [2]) |
| --- | --- | --- | --- | --- | --- | --- | --- |
| Cc1cccc(C)c1COc1cccc(CC(=O)NO)c1 [Compound CT, N-Hydroxy-2-[3-(2,6-dimethylbenzyloxy)phenyl]acetamide] | 230 ± 59 U/L | 170 ± 23 U/L | reduced | 894 ± 55 µM | 131 ± 21 mg/dL | 3.1 ± 0.9 ng/mL | 68 ± 6 mg/dL |
| Cc1cccc(C)c1COc1cccc(C(=O)CCC(=O)O)c1 [Compound BI, 4-(3-(2,6-Dimethylbenzyloxy)phenyl)-4-oxobutyric acid, reference compound] | 330 ± 40 U/L | 217 ± 24 U/L | reduced | 874 ± 74 µM | 180 ± 19 mg/dL | 1.1 ± 0.2 ng/mL | 58 ± 2 mg/dL |
| Cc1cccc(C)c1COc1cccc(CC(=O)NCCO)c1 [Compound CV, N-(2-Hydroxyethyl)-2-[3-(2,6-dimethylbenzyloxy)phenyl]acetamide] | 484 ± 65 U/L | 318 ± 48 U/L | reduced | 1070 ± 60 µM | 164 ± 10 mg/dL | 5.0 ± 0.7 ng/mL | 73 ± 5 mg/dL |
